From PubChem BioAssay AID1963983 (Molecular Pharmacology Branch, DTP, NCI, 2024)
Each block holds one compound with its values, some of them ahead of it.

Test system: 186277-243-T-J2-PDC multi-cell spheroid viability
Test: Anticancer human tumor 186277-243-T-J2-PDC patient-derived colon adenocarcinoma cell line growth inhibition [PI3K]
Settings: for IC50: curve of first compound; for viability, T/C: stronger effect = lower value
Excerpt: Combinatorial screen of targeted agents with the PI3K inhibitors inavolisib, alpelisib, duvelisib, and copanlisib in multi-cell type tumor spheroids
A high-throughput screen of multi-cell type tumor spheroids was designed to identify active combinations of targeted small molecules and PI3K pathway inhibitors. Complex spheroids include a stromal component modeled by human endothelial cells (HUVEC) and fibroblasts modeled by human mesenchymal stem cells (MSCs). The concentration ranges selected for each drug and investigational agent were based upon clinically achievable concentrations if the clinical Cmax of the agent was known.
Compounds. The drugs and investigational agents: inavolisib (NSC800729), alpelisib (NSC765974), duvelisib (NSC772469), copanlisib (NSC816437), ipatasertib (NSC767898), afuresertib (NSC778305), talazoparib (NSC767125), sapanisertib (NSC764658), selumetinib (NSC741078), tovorafenib (DAY101, NSC766906), vemurafenib (NSC761431), ravoxertinib (NSC781343), sotorasib (NSC818433), MRTX1133 (NSC 836407), abemaciclib (NSC 768073), palbociclib (NSC758247), venetoclax (NSC 766270), SY5609 (NSC837396), enzalutamide (NSC755605), and darolutamide (NSC825331), were obtained from the National Cancer Institute (NCI) Developmental Therapeutics Program Chemical Repository. The FDA-approved anticancer drug set is available from the NCI Developmental Therapeutics Program. […] The stock solutions were prepared in dimethyl sulfoxide (DMSO, Sigma-Aldrich, St. Louis, MO, cat. D2650) at 800-fold the tested concentration and stored at -70 degrees C prior to their use. All drugs and investigational agents were tested over a range starting from a high concentration at or near the clinical Cmax and decreasing in half-log increments. If the clinical Cmax for an agent had not been determined, the highest concentration tested was 10 microM.
Cell Culture. All cells were maintained in an incubator at 37 degrees C and 5% CO2 with 95% humidity. The PDC lines were cultured according to standard operating procedures established by the NCI PDMR (https://pdmr.cancer.gov/sops/default.htm). All PDCs were thawed and cultured in Matrigel-coated flasks prepared with a working solution of 1X Ham's F-12 nutrient mix, without supplementation (Invitrogen, Waltham, MA, cat. 11765054), 100 U/mL penicillin-streptomycin (Invitrogen, cat. 15140122), and 2.5% Matrigel (Corning Inc., Corning, NY, cat. 354248) for the first three passages. The 354836-022-R-J1-PDC, 475296-252-R-J1-PDC, and 997726-040-R-J2-PDC lines were cultured in 6A media, which includes advanced DMEM/F-12 (Thermo Fisher Scientific, cat. 12634028), 10 mM HEPES (Thermo Fisher Scientific, cat. 15630080), 1X GlutaMAX supplement (Thermo Fisher Scientific, cat. 35050061), 0.1 mg/mL primocin (InvivoGen, San Diego, CA, cat. ant-pm-2), 10% defined fetal bovine serum, heat inactivated (HyClone Laboratories Inc., Logan, UT, cat. SH30070.03HI), 50% L-WRN conditioned media (ATCC, cat. CRL-3276), 1.25 mM N-Acetyl-L-cysteine (Sigma-Aldrich, cat. A9165), 10 mM nicotinamide (Sigma-Aldrich, cat. N0636), 1X B-27 supplement (Thermo Fisher Scientific, cat. 17504044), 1X N-2 supplement (Thermo Fisher Scientific, cat. 17502048), and 10 microM Y-27632 dihydrochloride (Tocris Bioscience, Bristol, United Kingdom, cat. 1254). The 624824-186-R-J2-PDC line was cultured in 6C/Colon 1B media, which includes all 6A media components plus 50 ng/mL human EGF recombinant protein (Thermo Fisher Scientific, cat. PHG0311). […]

[1] = second compound 0.00316 µM, first compound 0.000316 µM
[2] = second compound 0.00316 µM, first compound 0.001 µM
[3] = second compound 0.00316 µM, first compound 0.00316 µM
[4] = second compound 0.00316 µM, first compound 0.01 µM
[5] = second compound 0.00316 µM, first compound 0.0316 µM
[6] = second compound 0.00316 µM, first compound 0.1 µM
[7] = second compound 0.01 µM, first compound 0.000316 µM
[8] = second compound 0.01 µM, first compound 0.001 µM
[9] = second compound 0.01 µM, first compound 0.00316 µM
[10] = second compound 0.01 µM, first compound 0.01 µM
[11] = second compound 0.01 µM, first compound 0.0316 µM
[12] = second compound 0.01 µM, first compound 0.1 µM
[13] = second compound 0.0316 µM, first compound 0.000316 µM
[14] = second compound 0.0316 µM, first compound 0.001 µM
[15] = second compound 0.0316 µM, first compound 0.00316 µM
[16] = second compound 0.0316 µM, first compound 0.01 µM
[17] = second compound 0.0316 µM, first compound 0.0316 µM
[18] = second compound 0.0316 µM, first compound 0.1 µM
[19] = second compound 0.1 µM, first compound 0.000316 µM
[20] = second compound 0.1 µM, first compound 0.001 µM
[21] = second compound 0.1 µM, first compound 0.00316 µM
[22] = second compound 0.1 µM, first compound 0.01 µM
[23] = second compound 0.1 µM, first compound 0.0316 µM
[24] = second compound 0.1 µM, first compound 0.1 µM
[25] = second compound 0.316 µM, first compound 0.000316 µM
[26] = second compound 0.316 µM, first compound 0.001 µM
[27] = second compound 0.316 µM, first compound 0.00316 µM
[28] = second compound 0.316 µM, first compound 0.01 µM
[29] = second compound 0.316 µM, first compound 0.0316 µM
[30] = second compound 0.316 µM, first compound 0.1 µM
[31] = second compound 1 µM, first compound 0.000316 µM
[32] = second compound 1 µM, first compound 0.001 µM
[33] = second compound 1 µM, first compound 0.00316 µM
[34] = second compound 1 µM, first compound 0.01 µM
[35] = second compound 1 µM, first compound 0.0316 µM
[36] = second compound 1 µM, first compound 0.1 µM
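Note: spheroids exposed to compounds for seven days before viability reading.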
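Throughout, for viability, T/C: 100% = DMSO vehicle control viability.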

- IC50 (second compound 0.00316 µM): > 100 nM
- IC50 (second compound 0.01 µM): > 100 nM
- IC50 (second compound 0.0316 µM): 21.4 nM
- IC50 (second compound 0.1 µM): < 0.316 nM
- IC50 (second compound 0.316 µM): < 0.316 nM
- IC50 (second compound 1 µM): < 0.316 nM
Compound: Cn1ncnc1[C@H]1c2n[nH]c(=O)c3cc(F)cc(c23)N[C@@H]1c1ccc(F)cc1 + COc1c(OCCCN2CCOCC2)ccc2c3n(c(=NC(=O)c4cnc(N)nc4)nc12)CCN3
- viability, T/C [1]: 102%
- viability, T/C [2]: 100%
- viability, T/C [3]: 105%
- viability, T/C [4]: 80.9%
- viability, T/C [5]: 88%
- viability, T/C [6]: 79.5%
- viability, T/C [7]: 93.8%
- viability, T/C [8]: 96%
- viability, T/C [9]: 83.6%
- viability, T/C [10]: 98.3%
- viability, T/C [11]: 85.5%
- viability, T/C [12]: 68.7%
- viability, T/C [13]: 66%
- viability, T/C [14]: 63.8%
- viability, T/C [15]: 58.9%
- viability, T/C [16]: 54.6%
- viability, T/C [17]: 47.2%
- viability, T/C [18]: 40.8%
- viability, T/C [19]: 22.2%
- viability, T/C [20]: 15.9%
- viability, T/C [21]: 16.7%
- viability, T/C [22]: 13%
- viability, T/C [23]: 14.1%
- viability, T/C [24]: 9.78%
- viability, T/C [25]: 4.1%
- viability, T/C [26]: 7.07%
- viability, T/C [27]: 5.01%
- viability, T/C [28]: 6.2%
- viability, T/C [29]: 4.54%
- viability, T/C [30]: 4.17%
- viability, T/C [31]: 3.72%
- viability, T/C [32]: 4.99%
- viability, T/C [33]: 1.76%
- viability, T/C [34]: 1.73%
- viability, T/C [35]: 3.49%
- viability, T/C [36]: 2.04%

- IC50 (second compound 0.00316 µM): > 100 nM
- IC50 (second compound 0.01 µM): > 100 nM
- IC50 (second compound 0.0316 µM): > 100 nM
- IC50 (second compound 0.1 µM): > 100 nM
- IC50 (second compound 0.316 µM): 96.4 nM
- IC50 (second compound 1 µM): < 0.316 nM
Compound: CC(=O)c1c(C)c2cnc(Nc3ccc(N4CCNCC4)cn3)nc2n(C2CCCC2)c1=O + CC(Nc1ccc2c(c1)OCCn1cc(N3C(=O)OCC3C(F)F)nc1-2)C(N)=O
- viability, T/C [1]: 114%
- viability, T/C [2]: 89.2%
- viability, T/C [3]: 82.3%
- viability, T/C [4]: 98.5%
- viability, T/C [5]: 118%
- viability, T/C [6]: 137%
- viability, T/C [7]: 94%
- viability, T/C [8]: 94.8%
- viability, T/C [9]: 89.8%
- viability, T/C [10]: 101%
- viability, T/C [11]: 119%
- viability, T/C [12]: 132%
- viability, T/C [13]: 119%
- viability, T/C [14]: 116%
- viability, T/C [15]: 91.7%
- viability, T/C [16]: 96.3%
- viability, T/C [17]: 134%
- viability, T/C [18]: 122%
- viability, T/C [19]: 104%
- viability, T/C [20]: 89.3%
- viability, T/C [21]: 102%
- viability, T/C [22]: 98.6%
- viability, T/C [23]: 101%
- viability, T/C [24]: 89.4%
- viability, T/C [25]: 85.3%
- viability, T/C [26]: 73.6%
- viability, T/C [27]: 73.2%
- viability, T/C [28]: 76.1%
- viability, T/C [29]: 63.5%
- viability, T/C [30]: 49.3%
- viability, T/C [31]: 49.7%
- viability, T/C [32]: 43.5%
- viability, T/C [33]: 47.5%
- viability, T/C [34]: 41.2%
- viability, T/C [35]: 35.7%
- viability, T/C [36]: 29.6%

- IC50 (second compound 0.00316 µM): 1120 nM
- IC50 (second compound 0.01 µM): 774 nM
- IC50 (second compound 0.0316 µM): 648 nM
- IC50 (second compound 0.1 µM): 355 nM
- IC50 (second compound 0.316 µM): 134 nM
- IC50 (second compound 1 µM): < 31.6 nM
Compound: CC(C)NCC(C(=O)N1CCN(c2ncnc3c2C(C)CC3O)CC1)c1ccc(Cl)cc1 (stereo unspecified) + CC(Nc1ccc2c(c1)OCCn1cc(N3C(=O)OCC3C(F)F)nc1-2)C(N)=O
- viability, T/C [5]: 92.9%
- viability, T/C [6]: 77.1%
- viability, T/C (second compound 0.00316 µM, first compound 0.316 µM): 64.1%
- viability, T/C (second compound 0.00316 µM, first compound 1 µM): 52%
- viability, T/C (second compound 0.00316 µM, first compound 3.16 µM): 39.6%
- viability, T/C (second compound 0.00316 µM, first compound 10 µM): 21.4%
- viability, T/C [11]: 95.3%
- viability, T/C [12]: 87.2%
- viability, T/C (second compound 0.01 µM, first compound 0.316 µM): 62.2%
- viability, T/C (second compound 0.01 µM, first compound 1 µM): 47%
- viability, T/C (second compound 0.01 µM, first compound 3.16 µM): 29.8%
- viability, T/C (second compound 0.01 µM, first compound 10 µM): 18.9%
- viability, T/C [17]: 104%
- viability, T/C [18]: 97%
- viability, T/C (second compound 0.0316 µM, first compound 0.316 µM): 71.4%
- viability, T/C (second compound 0.0316 µM, first compound 1 µM): 37.1%
- viability, T/C (second compound 0.0316 µM, first compound 3.16 µM): 19%
- viability, T/C (second compound 0.0316 µM, first compound 10 µM): 15%
- viability, T/C [23]: 100%
- viability, T/C [24]: 86.2%
- viability, T/C (second compound 0.1 µM, first compound 0.316 µM): 51%
- viability, T/C (second compound 0.1 µM, first compound 1 µM): 27.8%
- viability, T/C (second compound 0.1 µM, first compound 3.16 µM): 17.1%
- viability, T/C (second compound 0.1 µM, first compound 10 µM): 12.9%
- viability, T/C [29]: 75.9%
- viability, T/C [30]: 53.6%
- viability, T/C (second compound 0.316 µM, first compound 0.316 µM): 37.6%
- viability, T/C (second compound 0.316 µM, first compound 1 µM): 24%
- viability, T/C (second compound 0.316 µM, first compound 3.16 µM): 11.8%
- viability, T/C (second compound 0.316 µM, first compound 10 µM): 8.85%
- viability, T/C [35]: 40.1%
- viability, T/C [36]: 33.3%
- viability, T/C (second compound 1 µM, first compound 0.316 µM): 24.5%
- viability, T/C (second compound 1 µM, first compound 1 µM): 19.4%
- viability, T/C (second compound 1 µM, first compound 3.16 µM): 17.1%
- viability, T/C (second compound 1 µM, first compound 10 µM): 6.4%
